Columns and labels:
[1] = molecular target: Activin receptor type-1B (Homo sapiens) (UniProt P36896); conditions: Compound concentration 1000.0 nM
[2] = molecular target: Aurora kinase B (Homo sapiens) (UniProt Q96GD4); conditions: Compound concentration 1000.0 nM
[3] = molecular target: Tyrosine-protein kinase CSK (Homo sapiens) (UniProt P41240); conditions: Compound concentration 1000.0 nM
[4] = molecular target: Casein kinase I isoform alpha (Homo sapiens) (UniProt P48729); conditions: Compound concentration 1000.0 nM
[5] = molecular target: Casein kinase I isoform epsilon (Homo sapiens) (UniProt P49674); conditions: Compound concentration 1000.0 nM
[6] = molecular target: Casein kinase II subunit alpha (Homo sapiens) (UniProt P68400); conditions: Compound concentration 1000.0 nM
[7] = molecular target: Death-associated protein kinase 1 (Homo sapiens) (UniProt P53355); conditions: Compound concentration 1000.0 nM
[8] = molecular target: Serine/threonine-protein kinase DCLK1 (Homo sapiens) (UniProt O15075); conditions: Compound concentration 1000.0 nM
[9] = molecular target: Dual specificity tyrosine-phosphorylation-regulated kinase 1A (Homo sapiens) (UniProt Q13627); conditions: Compound concentration 1000.0 nM
[10] = molecular target: Ephrin type-A receptor 2 (Homo sapiens) (UniProt P29317); conditions: Compound concentration 1000.0 nM
[11] = molecular target: Receptor tyrosine-protein kinase erbB-4 (Homo sapiens) (UniProt Q15303); conditions: Compound concentration 1000.0 nM
[12] = molecular target: Mitogen-activated protein kinase 6 (Homo sapiens) (UniProt Q16659); conditions: Compound concentration 1000.0 nM
[13] = molecular target: Focal adhesion kinase 1 (Homo sapiens) (UniProt Q05397); conditions: Compound concentration 1000.0 nM
[14] = molecular target: Vascular endothelial growth factor receptor 1 (Homo sapiens) (UniProt P17948); conditions: Compound concentration 1000.0 nM
[15] = molecular target: Homeodomain-interacting protein kinase 4 (Homo sapiens) (UniProt Q8NE63); conditions: Compound concentration 1000.0 nM
[16] = molecular target: Tyrosine-protein kinase ITK/TSK (Homo sapiens) (UniProt Q08881); conditions: Compound concentration 1000.0 nM
[17] = molecular target: Mast/stem cell growth factor receptor Kit (Homo sapiens) (UniProt P10721); conditions: Compound concentration 1000.0 nM
[18] = tested on: Mast/stem cell growth factor receptor Kit (Homo sapiens), P10721 [A829P]; conditions: Compound concentration 1000.0 nM
[19] = molecular target: Dual specificity mitogen-activated protein kinase kinase 5 (Homo sapiens) (UniProt Q13163); conditions: Compound concentration 1000.0 nM
[20] = tested on: Hepatocyte growth factor receptor (Homo sapiens), P08581 [Y1235D]; conditions: Compound concentration 1000.0 nM
[21] = molecular target: Misshapen-like kinase 1 (Homo sapiens) (UniProt Q8N4C8); conditions: Compound concentration 1000.0 nM
[22] = molecular target: Serine/threonine-protein kinase 4 (Homo sapiens) (UniProt Q13043); conditions: Compound concentration 1000.0 nM
[23] = molecular target: Myosin light chain kinase, smooth muscle (Homo sapiens) (UniProt Q15746); conditions: Compound concentration 1000.0 nM
[24] = molecular target: Serine/threonine-protein kinase Nek10 (Homo sapiens) (UniProt Q6ZWH5); conditions: Compound concentration 1000.0 nM
[25] = molecular target: Serine/threonine-protein kinase Nek3 (Homo sapiens) (UniProt P51956); conditions: Compound concentration 1000.0 nM
[26] = molecular target: Serine/threonine-protein kinase Nek5 (Homo sapiens) (UniProt Q6P3R8); conditions: Compound concentration 1000.0 nM
[27] = molecular target: Serine/threonine-protein kinase Nek6 (Homo sapiens) (UniProt Q9HC98); conditions: Compound concentration 1000.0 nM
[28] = molecular target: Cyclin-dependent kinase 17 (Homo sapiens) (UniProt Q00537); conditions: Compound concentration 1000.0 nM
[29] = molecular target: Cyclin-dependent kinase 2 homolog (Plasmodium falciparum (isolate 3D7)) (UniProt P61075); conditions: Compound concentration 1000.0 nM
[30] = molecular target: Phosphatidylinositol 4-phosphate 3-kinase C2 domain-containing subunit beta (Homo sapiens) (UniProt O00750); conditions: Compound concentration 1000.0 nM
[31] = tested on: Phosphatidylinositol 4,5-bisphosphate 3-kinase catalytic subunit alpha isoform (Homo sapiens), P42336 [H1047L]; conditions: Compound concentration 1000.0 nM
[32] = molecular target: Protein kinase C iota type (Homo sapiens) (UniProt P41743); conditions: Compound concentration 1000.0 nM
[33] = molecular target: Protein kinase C theta type (Homo sapiens) (UniProt Q04759); conditions: Compound concentration 1000.0 nM
[34] = molecular target: RAF proto-oncogene serine/threonine-protein kinase (Homo sapiens) (UniProt P04049); conditions: Compound concentration 1000.0 nM
[35] = molecular target: Proto-oncogene tyrosine-protein kinase ROS (Homo sapiens) (UniProt P08922); conditions: Compound concentration 1000.0 nM
[36] = molecular target: Ribosomal protein S6 kinase alpha-4 (Homo sapiens) (UniProt O75676); conditions: Compound concentration 1000.0 nM
[37] = molecular target: Ribosomal protein S6 kinase alpha-3 (Homo sapiens) (UniProt P51812); conditions: Compound concentration 1000.0 nM
[38] = molecular target: Ribosomal protein S6 kinase alpha-3 (Homo sapiens) (UniProt P51812); conditions: Compound concentration 1000.0 nM; remark: listed apart in the source
[39] = molecular target: Proto-oncogene tyrosine-protein kinase Src (Homo sapiens) (UniProt P12931); conditions: Compound concentration 1000.0 nM
[40] = molecular target: Tyrosine-protein kinase Tec (Homo sapiens) (UniProt P42680); conditions: Compound concentration 1000.0 nM
[41] = molecular target: High affinity nerve growth factor receptor (Homo sapiens) (UniProt P04629); conditions: Compound concentration 1000.0 nM
[42] = molecular target: Serine/threonine-protein kinase WNK4 (Homo sapiens) (UniProt Q96J92); conditions: Compound concentration 1000.0 nM
[43] = molecular target: Histamine H2 receptor (Homo sapiens) (UniProt P25021); conditions: Compound concentration 10.0 uM
[44] = molecular target: GABA-A receptor; anion channel (Rattus norvegicus) (UniProt O09028+P15431+P18506+P18508+P19969+P20236+P23574+P23576+P28471+P28473+P30191+P62813+P63079+P63138+Q91ZM7+Q9ES14); conditions: Compound concentration 10.0 uM

Ribosomal protein S6 kinase alpha-3 (Homo sapiens), sequence (P51812 whole entry): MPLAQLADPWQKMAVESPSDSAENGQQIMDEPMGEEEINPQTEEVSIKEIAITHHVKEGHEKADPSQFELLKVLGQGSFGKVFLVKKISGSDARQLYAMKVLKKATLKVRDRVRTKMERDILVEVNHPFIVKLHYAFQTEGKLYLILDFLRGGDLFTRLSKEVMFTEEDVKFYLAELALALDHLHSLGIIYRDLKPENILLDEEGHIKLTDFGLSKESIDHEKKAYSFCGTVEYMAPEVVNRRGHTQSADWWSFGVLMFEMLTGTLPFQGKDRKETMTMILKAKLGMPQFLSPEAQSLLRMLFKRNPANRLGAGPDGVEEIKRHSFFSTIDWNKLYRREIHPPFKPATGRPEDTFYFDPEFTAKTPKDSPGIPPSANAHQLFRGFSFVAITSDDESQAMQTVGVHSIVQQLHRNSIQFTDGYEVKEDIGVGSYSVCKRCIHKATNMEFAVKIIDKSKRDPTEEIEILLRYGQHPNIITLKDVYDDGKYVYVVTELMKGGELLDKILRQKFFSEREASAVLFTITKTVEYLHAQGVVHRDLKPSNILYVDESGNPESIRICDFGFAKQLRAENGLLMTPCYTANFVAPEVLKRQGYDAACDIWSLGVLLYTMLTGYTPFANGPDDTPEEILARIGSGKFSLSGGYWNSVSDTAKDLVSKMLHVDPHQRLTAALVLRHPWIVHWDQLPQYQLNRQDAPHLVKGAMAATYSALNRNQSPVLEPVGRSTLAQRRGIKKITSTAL
Serine/threonine-protein kinase DCLK1 (Homo sapiens), sequence (O15075 whole entry): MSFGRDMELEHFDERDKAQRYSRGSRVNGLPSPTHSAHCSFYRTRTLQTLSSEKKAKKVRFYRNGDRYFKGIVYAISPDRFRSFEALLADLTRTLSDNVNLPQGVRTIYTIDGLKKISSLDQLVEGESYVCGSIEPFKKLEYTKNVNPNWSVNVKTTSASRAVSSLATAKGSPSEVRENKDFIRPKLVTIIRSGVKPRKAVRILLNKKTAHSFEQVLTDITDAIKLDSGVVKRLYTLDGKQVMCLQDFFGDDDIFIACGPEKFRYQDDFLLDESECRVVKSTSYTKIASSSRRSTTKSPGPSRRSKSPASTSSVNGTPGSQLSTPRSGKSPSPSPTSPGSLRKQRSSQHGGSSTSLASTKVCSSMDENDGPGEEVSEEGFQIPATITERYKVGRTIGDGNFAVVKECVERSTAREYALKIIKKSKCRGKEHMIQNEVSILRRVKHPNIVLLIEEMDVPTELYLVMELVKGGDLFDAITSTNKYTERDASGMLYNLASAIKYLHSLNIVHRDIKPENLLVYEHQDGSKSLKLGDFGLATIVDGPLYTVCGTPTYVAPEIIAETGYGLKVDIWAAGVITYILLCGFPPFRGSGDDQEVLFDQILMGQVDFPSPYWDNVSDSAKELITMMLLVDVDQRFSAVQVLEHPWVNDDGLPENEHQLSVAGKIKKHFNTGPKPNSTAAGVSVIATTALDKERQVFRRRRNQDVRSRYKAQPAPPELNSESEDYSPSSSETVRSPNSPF
Serine/threonine-protein kinase 4 (Homo sapiens), sequence (Q13043 whole entry): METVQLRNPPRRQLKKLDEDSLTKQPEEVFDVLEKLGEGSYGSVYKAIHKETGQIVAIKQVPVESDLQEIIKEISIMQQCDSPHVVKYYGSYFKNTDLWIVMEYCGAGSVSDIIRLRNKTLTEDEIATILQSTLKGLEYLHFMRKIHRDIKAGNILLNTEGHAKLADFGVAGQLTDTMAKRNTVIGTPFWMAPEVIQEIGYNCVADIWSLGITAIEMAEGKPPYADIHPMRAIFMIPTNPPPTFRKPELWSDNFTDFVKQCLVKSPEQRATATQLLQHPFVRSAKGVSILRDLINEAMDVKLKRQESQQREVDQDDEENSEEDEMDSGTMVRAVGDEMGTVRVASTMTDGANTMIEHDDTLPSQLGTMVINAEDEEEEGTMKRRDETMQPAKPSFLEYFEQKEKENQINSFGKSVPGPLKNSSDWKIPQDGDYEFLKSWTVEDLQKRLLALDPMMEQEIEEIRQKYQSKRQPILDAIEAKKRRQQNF
Serine/threonine-protein kinase WNK4 (Homo sapiens), sequence (Q96J92 whole entry): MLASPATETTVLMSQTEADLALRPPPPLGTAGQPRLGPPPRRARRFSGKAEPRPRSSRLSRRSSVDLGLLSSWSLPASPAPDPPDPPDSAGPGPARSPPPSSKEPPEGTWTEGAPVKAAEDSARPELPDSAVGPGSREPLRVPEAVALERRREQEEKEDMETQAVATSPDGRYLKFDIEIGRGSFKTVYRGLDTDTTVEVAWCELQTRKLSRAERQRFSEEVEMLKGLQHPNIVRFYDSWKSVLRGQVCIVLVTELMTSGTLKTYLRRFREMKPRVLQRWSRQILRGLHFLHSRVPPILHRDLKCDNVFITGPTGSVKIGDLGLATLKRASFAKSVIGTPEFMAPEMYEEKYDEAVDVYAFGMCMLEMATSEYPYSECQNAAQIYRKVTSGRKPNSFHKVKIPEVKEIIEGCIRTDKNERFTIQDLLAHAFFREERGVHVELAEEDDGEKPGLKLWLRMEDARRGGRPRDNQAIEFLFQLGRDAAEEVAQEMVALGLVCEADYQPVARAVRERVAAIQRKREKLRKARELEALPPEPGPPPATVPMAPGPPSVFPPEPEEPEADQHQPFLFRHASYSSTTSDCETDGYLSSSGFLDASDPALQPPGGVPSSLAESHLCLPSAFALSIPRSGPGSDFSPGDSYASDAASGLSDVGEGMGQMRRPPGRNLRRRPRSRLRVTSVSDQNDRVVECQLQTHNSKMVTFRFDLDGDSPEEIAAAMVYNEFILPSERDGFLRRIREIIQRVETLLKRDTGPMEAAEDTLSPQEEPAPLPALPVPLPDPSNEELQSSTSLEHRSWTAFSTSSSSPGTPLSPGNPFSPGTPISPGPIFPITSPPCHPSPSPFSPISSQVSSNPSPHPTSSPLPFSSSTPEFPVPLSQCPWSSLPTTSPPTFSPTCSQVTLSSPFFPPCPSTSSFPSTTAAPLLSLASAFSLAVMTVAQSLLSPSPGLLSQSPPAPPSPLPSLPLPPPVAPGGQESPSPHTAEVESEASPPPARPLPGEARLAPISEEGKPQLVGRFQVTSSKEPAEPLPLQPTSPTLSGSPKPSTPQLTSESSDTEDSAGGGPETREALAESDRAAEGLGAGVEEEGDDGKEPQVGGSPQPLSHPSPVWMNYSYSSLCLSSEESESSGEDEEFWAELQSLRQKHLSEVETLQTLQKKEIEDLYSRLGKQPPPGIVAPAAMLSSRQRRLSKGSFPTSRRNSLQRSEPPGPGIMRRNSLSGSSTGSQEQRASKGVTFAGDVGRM
Cyclin-dependent kinase 2 homolog (Plasmodium falciparum (isolate 3D7)), sequence (P61075 whole entry, the tested form may be a part): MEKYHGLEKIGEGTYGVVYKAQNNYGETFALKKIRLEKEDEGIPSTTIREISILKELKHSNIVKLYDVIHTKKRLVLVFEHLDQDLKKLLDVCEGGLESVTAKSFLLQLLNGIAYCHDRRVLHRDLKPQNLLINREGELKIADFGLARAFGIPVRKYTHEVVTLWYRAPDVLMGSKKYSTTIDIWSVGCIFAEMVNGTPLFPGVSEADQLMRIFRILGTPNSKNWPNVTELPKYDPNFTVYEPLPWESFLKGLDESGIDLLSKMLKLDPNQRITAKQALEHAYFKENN
Serine/threonine-protein kinase Nek10 (Homo sapiens), sequence (Q6ZWH5 whole entry): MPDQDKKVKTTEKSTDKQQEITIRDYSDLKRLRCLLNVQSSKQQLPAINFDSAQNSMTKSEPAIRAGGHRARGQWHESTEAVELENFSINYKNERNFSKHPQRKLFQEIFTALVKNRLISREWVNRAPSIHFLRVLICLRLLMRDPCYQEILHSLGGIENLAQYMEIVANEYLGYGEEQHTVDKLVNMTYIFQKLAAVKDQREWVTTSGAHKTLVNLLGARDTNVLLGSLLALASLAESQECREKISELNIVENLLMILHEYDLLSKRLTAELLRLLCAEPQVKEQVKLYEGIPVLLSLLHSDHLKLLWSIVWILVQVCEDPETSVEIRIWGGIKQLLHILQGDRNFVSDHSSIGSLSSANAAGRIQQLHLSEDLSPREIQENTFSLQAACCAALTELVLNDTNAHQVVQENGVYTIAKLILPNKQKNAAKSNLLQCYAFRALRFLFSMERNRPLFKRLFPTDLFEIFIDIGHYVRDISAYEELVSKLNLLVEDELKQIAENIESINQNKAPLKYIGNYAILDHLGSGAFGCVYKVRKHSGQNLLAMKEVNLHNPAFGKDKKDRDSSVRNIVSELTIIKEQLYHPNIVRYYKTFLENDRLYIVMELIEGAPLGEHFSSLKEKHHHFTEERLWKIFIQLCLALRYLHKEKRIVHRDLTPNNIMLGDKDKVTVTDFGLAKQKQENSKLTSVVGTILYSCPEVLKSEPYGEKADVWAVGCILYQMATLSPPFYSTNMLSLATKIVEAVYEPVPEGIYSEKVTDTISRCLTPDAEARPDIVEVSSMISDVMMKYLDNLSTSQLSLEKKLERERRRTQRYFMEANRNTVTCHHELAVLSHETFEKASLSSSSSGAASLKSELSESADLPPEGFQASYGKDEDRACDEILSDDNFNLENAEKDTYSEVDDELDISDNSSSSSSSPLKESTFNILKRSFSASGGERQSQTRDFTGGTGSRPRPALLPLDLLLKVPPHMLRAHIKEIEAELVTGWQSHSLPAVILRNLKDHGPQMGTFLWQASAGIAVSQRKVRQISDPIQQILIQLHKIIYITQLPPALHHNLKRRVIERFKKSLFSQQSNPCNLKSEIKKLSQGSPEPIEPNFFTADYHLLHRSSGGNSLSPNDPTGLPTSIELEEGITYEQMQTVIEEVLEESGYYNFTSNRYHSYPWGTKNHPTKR
Aurora kinase B (Homo sapiens), sequence (Q96GD4 whole entry): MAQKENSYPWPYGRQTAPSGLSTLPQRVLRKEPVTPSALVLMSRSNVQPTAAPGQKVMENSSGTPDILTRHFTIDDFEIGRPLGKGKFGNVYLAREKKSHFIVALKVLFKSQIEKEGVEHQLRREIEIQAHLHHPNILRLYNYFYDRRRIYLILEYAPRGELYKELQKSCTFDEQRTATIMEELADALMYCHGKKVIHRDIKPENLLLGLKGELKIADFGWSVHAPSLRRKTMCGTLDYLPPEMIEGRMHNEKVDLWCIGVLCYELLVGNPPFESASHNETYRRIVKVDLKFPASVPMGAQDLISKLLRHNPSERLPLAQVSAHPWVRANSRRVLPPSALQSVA

C[C@@H](c1cccc(C#N)c1)n1cc(Cl)cc(C(N)=O)c1=N [(S)-9s]
inactive: residual activity [1] 100% | residual activity [2] 100% | residual activity [3] 97% | residual activity [4] 81% | residual activity [5] 100% | residual activity [6] 72% | residual activity [7] 100% | residual activity [8] 98% | residual activity [9] 75% | residual activity [10] 88% | residual activity [11] 100% | residual activity [12] 100% | residual activity [13] 100% | residual activity [14] 100% | residual activity [15] 100% | residual activity [16] 82% | residual activity [17] 93% | residual activity [18] 100% | residual activity [19] 88% | residual activity [20] 100% | residual activity [21] 96% | residual activity [22] 100% | residual activity [23] 88% | residual activity [24] 91% | residual activity [26] 100% | residual activity [27] 79% | residual activity [28] 84% | residual activity [29] 100% | residual activity [30] 96% | residual activity [31] 96% | residual activity [32] 93% | residual activity [33] 86% | residual activity [34] 100% | residual activity [35] 100% | residual activity [36] 80% | residual activity [37] 94% | residual activity [38] 86% | residual activity [39] 99% | residual activity [40] 88% | residual activity [41] 100% | residual activity [42] 98% | inhibition [43] 8.25% | inhibition [44] 5.78%
active: residual activity [25] 44%

C[C@H](c1cccc(C#N)c1)n1cc(Cl)cc(C(N)=O)c1=N [(R)-9s]
inactive: residual activity [1] 100% | residual activity [2] 100% | residual activity [3] 100% | residual activity [4] 86% | residual activity [5] 99% | residual activity [6] 67% | residual activity [7] 100% | residual activity [8] 76% | residual activity [9] 65% | residual activity [10] 89% | residual activity [11] 100% | residual activity [13] 100% | residual activity [14] 100% | residual activity [15] 100% | residual activity [16] 90% | residual activity [17] 87% | residual activity [18] 95% | residual activity [19] 100% | residual activity [20] 100% | residual activity [21] 88% | residual activity [22] 100% | residual activity [23] 100% | residual activity [24] 99% | residual activity [25] 66% | residual activity [26] 93% | residual activity [27] 94% | residual activity [28] 91% | residual activity [29] 100% | residual activity [30] 100% | residual activity [31] 92% | residual activity [32] 100% | residual activity [33] 97% | residual activity [34] 100% | residual activity [35] 100% | residual activity [36] 69% | residual activity [37] 95% | residual activity [38] 80% | residual activity [39] 88% | residual activity [40] 100% | residual activity [41] 100% | residual activity [42] 97% | inhibition [43] 10.8% | inhibition [44] 0.16%
active: residual activity [12] 0%
